How the values were obtained:
[1] = biological target: T1, Mas-related G-protein coupled receptor member X2 (Homo sapiens, UniProt Q96LB1); assay: Intracellular Calcium Mobilization Assay; conditions: pH 7.4; 30 °C
T1 sequence (Q96LB1 whole entry): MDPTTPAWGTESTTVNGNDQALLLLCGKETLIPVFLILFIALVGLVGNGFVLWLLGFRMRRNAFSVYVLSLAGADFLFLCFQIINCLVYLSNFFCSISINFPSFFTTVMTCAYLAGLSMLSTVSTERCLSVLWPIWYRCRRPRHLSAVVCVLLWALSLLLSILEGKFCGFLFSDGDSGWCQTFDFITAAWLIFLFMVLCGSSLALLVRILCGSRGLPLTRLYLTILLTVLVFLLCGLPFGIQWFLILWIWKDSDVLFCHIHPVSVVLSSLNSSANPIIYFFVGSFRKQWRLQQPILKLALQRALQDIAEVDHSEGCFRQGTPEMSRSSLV
Method: MRGPRX2 stable cells were maintained in DMEM containing 10% FBS, 100 μg/ml hygromycin B, and 15 μg/ml blasticidin. For the calcium mobilization assay, cells were plated into glass bottomed, poly-L-lysine coated, black 384 well plates at a density of 20,000 cells/well in medium containing 1% dialyzed FBS, 1 μg/ml tetracycline, 100 IU/ml penicillin and 100 μg/ml streptomycin and incubated 24 h. Following tetracycline induction, medium was removed and cells were loaded with 20 μl/well of 1× FLIPR Calcium dye (Molecular Devices) and 2.5 mM probenic acid, for 1 h in a humidified environment at 37 °C with 5% CO2. For mast cell calcium experiments, cells were seeded at a density of 50,000 cells/well in Tyrode's buffer containing 1× calcium dye and incubated for 1 h before treatment and analysis. After dye loading, baseline was measured for 10 s before drug treatment, and then cells were treated with 10 μl of 3× concentrated drug in drug buffer (1× HBSS with 20 mM HEPES and 2.5 mM probenic acid, pH 7.4) in 16 point concentration response curves from 100 μM to 0.003 nM.

[2] = biological target: T1, Mas-related G-protein coupled receptor member X2; assay: PRESTO-Tango Assay; conditions: pH 7.4; 30 °C
Method: HTLA cells (HEK-T cells stably expressing a β-arrestin2-TEV fusion protein and a tTa-dependent luciferase reporter) were maintained in DMEM (Corning) containing 10% FBS, 2 μg/ml puromycin and 100 μg/ml hygromycin B in a humidified atmosphere at 37 °C with 5% CO2. In brief, cells were plated to 50% confluency and transfected with a codon-optimized MRGPRX-Tango construct using the calcium phosphate method53. The next day, transfected cells were transferred to glass-bottomed, poly-L-lysine-coated white 384-well plates at a density of 20,000 cells/well. The following day, cells were treated with 10 μM concentrations of small molecules (in quadruplicate) diluted in drug buffer (1× HBSS with 20 mM HEPES and 0.3% bovine serum albumin, pH 7.4) and incubated for 18-24 h. After drug incubation, medium was removed and 20 μl of Bright-Glo (Promega; diluted 20-fold) was added to each well and incubated 15 min at room temperature.

For `CN1CC[C@@]2(c3cccc(O)c3)Cc3nc4ccccc4cc3C[C@@H]2C1` [(+)-TAN-67], the EC50 [1] was 0.29 µM and the EC50 [2] was 0.43 µM.

In the case of `CCC(=O)O[C@](Cc1ccccc1)(c1ccccc1)[C@H](C)CN(C)C` [PROPOXYPHENE], the EC50 [1] is reported as 32 µM and the EC50 [2] is reported as 15 µM.

`COc1ccc2c(c1)[C@@]13CCCC[C@@H]1[C@@H](C2)N(C)CC3` [Dextromethorphan] showed an EC50 [1] of 5.9 µM and an EC50 [2] of 3.2 µM.

In the case of `CC(=O)O[C@H]1C=C[C@H]2[C@H]3Cc4ccc(O)c5c4[C@@]2(CCN3C)[C@H]1O5` [6-Acetylmorphine], the EC50 [1] is reported as 21 µM and the EC50 [2] is reported as 12 µM.

Work on `COc1ccc2c3c1O[C@H]1[C@@H](OC(C)=O)C=C[C@H]4[C@@H](C2)N(C)CC[C@@]341` [6-Acetylcodeine] yielded an EC50 [1] of 25 µM and an EC50 [2] of 19 µM.

`COC1=CC=C2[C@H]3Cc4ccc(OC)c5c4[C@@]2(CCN3C)[C@H]1O5` [Thebaine] showed an EC50 [1] of 76 µM and an EC50 [2] of 11 µM.

`CC(C)C[C@H](NC(=O)[C@H](Cc1ccccc1)NC(=O)CNC(=O)CNC(=O)[C@@H](N)Cc1ccc(O)cc1)C(=O)N[C@@H](CCCNC(=N)N)C(=O)N[C@@H](CCCNC(=N)N)C(=O)N[C@@H](CCC(N)=O)C(=O)N[C@@H](Cc1ccccc1)C(=O)N[C@@H](CCCCN)C(=O)N[C@H](C(=O)N[C@H](C(=O)N[C@H](C(=O)O)[C@H](C)O)C(C)C)C(C)C` [Dynorphin B (1-13)] gave an EC50 [1] of 6.5 µM and an EC50 [2] of 33 µM.

For `CC[C@H](C)[C@H](NC(=O)[C@H](CCCNC(=N)N)NC(=O)[C@H](CCCNC(=N)N)NC(=O)[C@H](CC(C)C)NC(=O)[C@H](Cc1ccccc1)NC(=O)CNC(=O)CNC(=O)[C@@H](N)Cc1ccc(O)cc1)C(=O)N[C@@H](CCCNC(=N)N)C(=O)N1CCC[C@H]1C(=O)N[C@@H](CCCCN)C(=O)N[C@@H](CC(C)C)C(=O)N[C@@H](CCCCN)C(=O)N[C@@H](Cc1c[nH]c2ccccc12)C(=O)N[C@@H](CC(=O)O)C(=O)N[C@@H](CC(N)=O)C(=O)N[C@@H](CCC(N)=O)C(=O)O` [Dynorphin A (1-17)], the EC50 [1] was 2.3 µM and the EC50 [2] was 21 µM.

Work on `CN1CC[C@]23CCCC[C@@H]2[C@H]1Cc1ccc(O)cc13` [Dextrorphan] yielded an EC50 [1] of 3.9 µM and an EC50 [2] of 4.2 µM.

For `C[C@@H]1C2Cc3ccc(O)cc3[C@]1(C)CCN2` [(6R,11S)-6,11-Dimethyl-1,2,3,4,5,6-hexahydro-2,6-methano-benzo[d]azocin-8-ol], the EC50 [2] was 50 µM.

`C[C@H]1C2Cc3ccc(O)cc3[C@@]1(C)CCN2` [(6S,11R)-6,11-Dimethyl-1,2,3,4,5,6-hexahydro-2,6-methano-benzo[d]azocin-8-ol] showed an EC50 [1] of 13 µM and an EC50 [2] of 14 µM.

In the case of `C[C@@H]1[C@@H]2Cc3ccc(O)cc3[C@@]1(C)CCN2C` [(+)-Metazocine], the EC50 [1] is reported as 9.3 µM and the EC50 [2] is reported as 7.2 µM.

For `CN1CC[C@@]23CCCC[C@H]2[C@@H]1Cc1ccc(O)cc13` [Levorphanol], the EC50 [1] was 13 µM and the EC50 [2] was 22 µM.

From BindingDB's records for doi:10.1038/nchembio.2334 (University of North Carolina, 2017)
